This note sets out measurements from patent publication US9499823B2, “Constructs expressing chimeric receptors and use thereof for the controlled activation of defence response to pathogens in plants” (priority 2009, dated 2016).

“Also recorded” adds a separate entry of the source.

In assay [1] the test system is ethylene biosynthesis in tobacco leaves. Briefly: Induction of ethylene biosynthesis in agroinfiltrated tobacco leaf explants. The format is cell-based, Nicotiana tabacum. The note with it: for ethylene release induced by flg22: flg22, 2 h, compared with EFR-expressing explants as negative controls. As for the experimental part:
F) Induction of ethylene biosynthesis in agroinfiltrated tobacco leaves expressing the fluorescent EFR, FLS2, TMC, eJMC and eJMC^Y859A. NC: negative control, represented by agroinfiltrated leaf tissues expressing fluorescent EFR or FLS2 and elicited with flg22 or elfl8, respectively. Results are averages±standard error (n=3).
Excised infiltrated leaf sectors were stimulated for 2 h with water or the elicitor ([…] and 100 μg/ml for OGs). Values are means±s.e.m. (N=3).
E) Induction of ethylene biosynthesis in agroinfiltrated tobacco leaves expressing EFR, WAK1, WEG and EWAK. Each construct was stimulated for 2 h with elfl8 (10 μM) or OGs (100 μg/mL). NC: negative control, represented by agroinfiltrated leaf tissue expressing EFR or FLS2 when OGs or elfl8, respectively, were used for elicitation. Error bars indicate the standard error of three independent replicates.
(A) Induction of ethylene biosynthesis in agroinfiltrated tobacco explants expressing EFR, WAK1, WEG and EWAK. […] Agroinfiltrated leaf tissues expressing EFR or WEG and elicited with OGs or elfl8 respectively, represented our negative control. Values are means±s.e.m. (N=3). (B) Elicitor-induced gene expression in untransformed Col-0 and Col-0 efr plants, and in transgenic Arabidopsis Col-0 efr plants stably expressing WEG. Accumulation of At3g22270 and At4g37640 transcripts was analysed by semi-quantitative PCR, using the UBQ5 gene for normalization. Adult leaves were syringe-infiltrated with water, OGs (25 μg/ml) or elfl8 (10 μM) for 3 h. The experiment was repeated three times with similar results. The same experiment was performed in a second independent transgenic line expressing WEG with similar results.
Approximately 150 mg of tobacco agroinfiltrated leaf were cut in small slices and extensively washed with sterile distilled water. The explants were placed in sealed 10 mL flasks containing 2 mL of sterile water alone or supplemented with 100 mg L^−1 OGs, or 1 μM flg22 or 10 μM elfl8. 450 μl headspace samples were withdrawn from the vial after 2 h treatment and analyzed by gas chromatography-mass spectrometry using an Agilent 6850A gas chromatograph coupled to a 5973N quadrupole mass selective detector (Agilent Technologies, Palo Alto, Calif., USA). Chromatographic separations were carried out an HP Plot-Q fused-silica capillary column (30 m×0.32 mm i.d.) coated with polystyrene-divinylbenzene (film thickness 0.20 μm) as stationary phase. Injection mode: splitless at a temperature of 220° C. The initial temperature of the oven was held at 50° C. for 8 min then ramped to 220° C. at a rate of 15° C./min and held for 5 min. Helium was used as carrier gas at a constant flow of 1.0 ml/min. Mass spectra were collected both in full scan and in SIM mode monitoring the ions m/z m/z 26, m/z 27 and m/z 28 (ionization energy 70 eV; ion source 280° C.; ion source vacuum 10^−5 Torr).

Assay [2] has as its system agroinfiltrated leaves of the Arabidopsis bak1-4 mutant. Briefly: Receptor internalization in agroinfiltrated leaves of the Arabidopsis bak1-4 mutant. The format is cell-based, Arabidopsis thaliana. The note with it: 10 μM flg22, 30 min. As for the experimental part: D) Relative variation of fluorescence in agroinfiltrated leaves of the Arabidopsis bak1-4 mutant expressing the indicated receptors and treated for 30 min with 10 μM flg22. Each value was normalised against fluorescence measured after 10 min of stimulation.
(§1) The GFP-dependent fluorescence was monitored from 2 to 4 days post infection in cells of the lower epidermis. Pieces of leaf were randomly cut from the infected area and mounted in water or supplemented with elicitors for microscopic observations. Flg22 and elfl8 were used at 10 μM while oligosaccharides were used at 100 μg/mL. Materials were analyzed using a Leica DM IRE epifluorescence microscope equipped with a digital cooled camera (DFC350FX R2; Leica). GFP fluorescence was excited with a 488-nm laser line, and emitted fluorescence was collected at 543-nm. The Leica Confocal Software and Adobe Photoshop 5.0 were used for post-acquisition image processing. All samples were imaged with the 40× or 100× oil objectives. Pictures were taken in Kahlman frame giving an average of 16 scans for the dynamics of internalization and 4 scans for the cellular localizations.
The authors also tested whether the presence of the LRR-RLK BAK1 (Nam & Li 2002), a protein required for flg22 and elfl8 signalling (Chinchilla et al., 2007), is also required for the internalization of eJMC induced by flg22.

For assay [3], the system named is Pseudomonas syringae DC3000. Kind of assay: Pseudomonas DC3000 infection of Arabidopsis Ws-0 plants by spraying. It is filed as in vivo. The conditions noted are these: transgenic Ws-0 plants vs Ws-0 wild type, 4 days post infection. The text has this: C) Pseudomonas DC3000 infections. (Left Panel) Symptoms disease of wild type and transformed plants after 4 days post infection. (Right panel) Growth of Pseudomonas syringae DC3000 after 4 day post infection. ***, p<0.005.
The authors therefore infected A. thaliana plants by spraying Pst DC3000 bacteria onto leaf surfaces. […] Higher resistance of eJMC plants, compared to Ws-0 wild-type plants, was found in all of three independent experiments.

Assay [4] relates to Arabidopsis ecotype Wassilewskija (Ws-0) leaves. Briefly: H2O2 accumulation (DAB staining) and callose deposition (aniline blue) in stably transformed Arabidopsis Ws-0. It is filed as cell-based, Arabidopsis thaliana. The conditions noted are these: flg22 1 μM, 1 h, stably transformed Ws-0 plants. As for the experimental part:
A) Histochemical analysis of defense responses upon 1 h of treatment with H2O, flg22 (1 μM) or elfl8 (10 μM).
3,3′-diaminobenzidine (DAB) staining, callose deposition and gene resistance analysis were assayed as described (Galletti et al., 2008). For measuring active oxygen species released by tobacco agroinfiltrated plants after elicitor treatment, the authors used a modified luminol-dependent assay (Gomez et al., 1999). Slices, corresponding to approximately 30 mg fresh weight, were transferred to assay tubes containing 1 μM flg22 or 10 μM elfl8 in aqueous solution supplied with 40 μM luminol (SIGMA). Chemo-luminescence was measured in a liquid scintillation counter (LS-6500, Beckman) after 5 and 15 min upon addition of elicitors.
Fluorescent eJMC and FLS2 were also stably expressed in transgenic Arabidopsis ecotype Wassilewskija (Ws-0), which carries EFR but lacks a flg22 perception system (Gomez-Gomez et al., 1999, Bauer et al., 2001). Transformed T1 plants expressing the proteins, named eJMC plants and FLS2 plants, respectively, were selected by confocal microscopy analysis of adult rosette leaves. […] Fluorescence was detected only in adult rosette leaves, likely due to a low expression level of the receptor at the different developmental stages.

In assay [5] the test system is agroinfiltrated leaves of N. tabacum ecotype SR1. Kind of assay: Receptor internalization in agroinfiltrated tobacco leaves. It is filed as cell-based, Nicotiana tabacum. As for the experimental part: E) Relative variation of fluorescence in agroinfiltrated tobacco leaves expressing EFR, FLS2, eJMC and TMC and treated with 10 μM elfl8 or 10 μM flg22 for 30 min.
as §1
The behaviour of TMC and eJMC upon treatment with flg22 and elfl8 was also analysed in agroinfiltrated leaves of N. tabacum ecotype SR1 and compared to that of EFR and FLS2. […] Instead, in the eJMC expressing plants fluorescence decreased within 10-30 min after stimulation with flg22, at an extent similar to that observed in Arabidopsis, i.e. by 25% and 35% after 20 min and 30 min, respectively (FIG. 3E).

In the case of FLS2 [reference compound], the “ethylene release induced by flg22” value in assay [1] is reported as “only a weak response”. Further, the “internalization induced by flg22 in the bak1-4 mutant” value in assay [2] was “nearly abolished”. In assay [3], the “development of disease symptoms / susceptibility to Pst DC3000” value is “Ws-0 plants showed a faster and more severe development of disease symptoms”; the “numbers of bacteria in leaves” value is recorded as “higher numbers of bacteria in Ws-0”. Moreover, in assay [4], the “H2O2 production induced by flg22” value is recorded as “induced” and the “callose deposition induced by flg22” value is “induced”. In assay [5] (10 μM flg22, 30 min), the “internalization after stimulation with flg22” value is on record as “Neither FLS2 nor TMC underwent internalization”.

In the case of “eJMC: chimera (Arg806FLS2-Val650EFR): LRR and eJM domains of FLS2 fused upstream of TM, iJM and kinase domains of EFR, GFP-fused”, the “ethylene accumulation upon stimulation with elfl8” value in assay [1] (elfl8 10 μM, 2 h) is reported as “did not”. In addition, the “ethylene release induced by flg22” value in assay [1] was “significantly higher”. Further, the “internalization induced by flg22 in the bak1-4 mutant” value in assay [2] is recorded as “not affected”. For the same molecule, in assay [3], the “development of disease symptoms / susceptibility to Pst DC3000” value is “Ws-0 plants showed a faster and more severe development of disease symptoms; also recorded: less susceptible”; the “numbers of bacteria in leaves” value is “higher numbers of bacteria in Ws-0”. In assay [4], the “H2O2 production induced by flg22” value is “induced” and the “callose deposition induced by flg22” value was “induced”. The “fluorescence decrease after stimulation with flg22” value in assay [5] (10 μM flg22, after 20 min) came to 25%. Moreover, the “fluorescence decrease after stimulation with flg22” value in assay [5] (10 μM flg22, after 30 min) came to 35%.

B1: WEG: chimeric receptor: WAK1 ectodomain fused to the TM-iJM-kinase portion of EFR, GFP-fused (protein)
chain: QHQPGENCQNKCGNITIEYPFGISSGCYYPGNESFSITCKEDRPHVLSDIEVANFNHSGQLQVLLNRSSTCYDEQGKKTEEDSSFTLENLSLSANNKLTAVGCNALSLLDTFGMQNYSTACLSLCDSPPEADGECNGRGCCRVDVSAPLDSYTFETTSGRIKHMTSFHDFSPCTYAFLVEDDKFNFSSTEDLLNLRNVMRFPVLLDWSVGNQTCEQVGSTSICGGNSTCLDSTPRNGYICRCNEGFDGNPYLSAGCQDVNECTTSSTIHRHNCSDPKTCRNKVGGFYCKCQSGYRLDTTTMSCKRKEVVSGICIGIASLLLIIIVASLCWFMKRKKKNNASDGNPSDSTTLGMFHEKVSYEELHSATSRFSSTNLIGSGNFGNVFKGLLGPENKLVAVKVLNLLKHGATKSFMAECETFKGIRHRNLVKLITVCSSLDSEGNDFRALVYEFMPKGSLDMWLQLEDLERVNDHSRSLTPAEKLNIAIDVASALEYLHVHCHDPVAHCDIKPSNILLDDDLTAHVSDFGLAQLLYKYDRESFLNQFSSAGVRGTIGYAAPEYGMGGQPSIQGDVYSFGILLLEMFSGKKPTDESFAGDYNLHSYTKSILSGCTSSGGSNAIDEGLRLVLQVGIKCSEEYPRDRMRTDEAVRELISIRSKFFSSKTTITESPRDAPQSSPQEWMLNTDMHTM
modifications: left off: large carriers
For B1, in assay [1] (OGs 100 μg/mL, 2 h, negative control OG-stimulated EFR-expressing tissues), the “ethylene accumulation induced by OGs relative to negative control” value turned out to be 2.4 times.

B2: EFR: Arabidopsis LRR receptor kinase Elongation Factor Tu Receptor (AT5G20480); GFP-fused control (protein)
chain: RFSNETDMQALLEFKSQVSENNKREVLASWNHSSPFCNWIGVTCGRRRERVISLNLGGFKLTGVISPSIGNLSFLRLLNLADNSFGSTIPQKVGRLFRLQYLNMSYNLLEGRIPSSLSNCSRLSTVDLSSNHLGHGVPSELGSLSKLAILDLSKNNLTGNFPASLGNLTSLQKLDFAYNQMRGEIPDEVARLTQMVFFQIALNSFSGGFPPALYNISSLESLSLADNSFSGNLRADFGYLLPNLRRLLLGTNQFTGAIPKTLANISSLERFDISSNYLSGSIPLSFGKLRNLWWLGIRNNSLGNNSSSGLEFIGAVANCTQLEYLDVGYNRLGGELPASIANLSTTLTSLFLGQNLISGTIPHDIGNLVSLQELSLETNMLSGELPVSFGKLLNLQVVDLYSNAISGEIPSYFGNMTRLQKLHLNSNSFHGRIPQSLGRCRYLLDLWMDTNRLNGTIPQEILQIPSLAYIDLSNNFLTGHFPEEVGKLELLVGLGASYNKLSGKMPQAIGGCLSMEFLFMQGNSFDGAIPDISRLVSLKNVDFSNNNLSGRIPRYLASLPSLRNLNLSMNKFEGRVPTTGVFRNATAVSVFGNTNICGGVREMQLKPCIVQASPRKRKPLSVRKKVVSGICIGIASLLLIIIVASLCWFMKRKKKNNASDGNPSDSTTLGMFHEKVSYEELHSATSRFSSTNLIGSGNFGNVFKGLLGPENKLVAVKVLNLLKHGATKSFMAECETFKGIRHRNLVKLITVCSSLDSEGNDFRALVYEFMPKGSLDMWLQLEDLERVNDHSRSLTPAEKLNIAIDVASALEYLHVHCHDPVAHCDIKPSNILLDDDLTAHVSDFGLAQLLYKYDRESFLNQFSSAGVRGTIGYAAPEYGMGGQPSIQGDVYSFGILLLEMFSGKKPTDESFAGDYNLHSYTKSILSGCTSSGGSNAIDEGLRLVLQVGIKCSEEYPRDRMRTDEAVRELISIRSKFFSSKTTITESPRDAPQSSPQEWMLNTDMHTM
For the molecule B2, the “ethylene accumulation upon stimulation with elfl8” value in assay [1] (elfl8 10 μM, 2 h) is “accumulated ethylene”. Also, the “release of ethylene induced by elfl8 relative to negative control” value in assay [1] (elfl8 10 μM, 2 h, negative control FLS2-expressing explants) is given as 3.8 times. In addition, the “internalization response upon stimulation with elfl8” value in assay [5] (10 μM elfl8, 30 min) is recorded as “no response”.
